Test [1] has as its target T1, Plasminogen (Homo sapiens, UniProt P00747). The experiment in a line: Relative affinity for Plasmin compared to compound 1.
Test [2] deals with T2, Coagulation factor X (Homo sapiens, UniProt P00742). The experiment in a line: Binding affinity for Coagulation factor X with respect to compound 1.
Test [3] addresses Coagulation factor VII/tissue factor (Homo sapiens, UniProt P08709). The experiment in a line: Binding affinity for factor VIIa/TF. In kind it is protein-complex assay.
Test [4] addresses T3, Prothrombin (Homo sapiens, UniProt P00734). The experiment in a line: Binding affinity for Coagulation factor II relative to compound 1.
Test [5] deals with T4, Serine protease 1 (Homo sapiens, UniProt P07477). Nature of the test: Relative binding affinity towards Trypsin.
Test [6] addresses T5, Urokinase-type plasminogen activator (Homo sapiens, UniProt P00749). Nature of the test: Relative binding affinity for urokinase-type plasminogen activator.
Test [7] can be described thus: (§1) In vitro anticoagulant activity in human plasma to double the prothrombin time (2x PT). In kind it is functional.
Test [8] is filed under the species Homo sapiens. The experiment in a line: In vitro anticoagulant activity in human plasma to double the prothrombin time (2xP T); Not active. The format is functional, cell-free.
For test [9], the target named is T4, Serine protease 1. The experiment in a line: Binding affinity towards Trypsin.
Test [10] addresses T5, Urokinase-type plasminogen activator. Nature of the test: Binding affinity towards urokinase-type plasminogen activator (microPa).
Test [11] addresses T3, Prothrombin. The experiment in a line: Binding affinity towards Coagulation factor II.
Test [12] concerns the target T2, Coagulation factor X. Nature of the test: Binding affinity towards Coagulation factor X.
Test [13] concerns the target T1, Plasminogen. The experiment in a line: Binding affinity towards Plasmin.
For test [14], the target named is T2, Coagulation factor X. The experiment in a line: Binding affinity towards coagulation factor X with respect to compound 1.
For test [15], the target named is T3, Prothrombin. Nature of the test: Binding affinity towards Thrombin with respect to compound 1.
Test [16] is filed under the species Homo sapiens. Described as §1. In kind it is functional.
Another test concerns the target T6, Coagulation factor VII (Homo sapiens, UniProt P08709).
T6 sequence (P08709 whole entry): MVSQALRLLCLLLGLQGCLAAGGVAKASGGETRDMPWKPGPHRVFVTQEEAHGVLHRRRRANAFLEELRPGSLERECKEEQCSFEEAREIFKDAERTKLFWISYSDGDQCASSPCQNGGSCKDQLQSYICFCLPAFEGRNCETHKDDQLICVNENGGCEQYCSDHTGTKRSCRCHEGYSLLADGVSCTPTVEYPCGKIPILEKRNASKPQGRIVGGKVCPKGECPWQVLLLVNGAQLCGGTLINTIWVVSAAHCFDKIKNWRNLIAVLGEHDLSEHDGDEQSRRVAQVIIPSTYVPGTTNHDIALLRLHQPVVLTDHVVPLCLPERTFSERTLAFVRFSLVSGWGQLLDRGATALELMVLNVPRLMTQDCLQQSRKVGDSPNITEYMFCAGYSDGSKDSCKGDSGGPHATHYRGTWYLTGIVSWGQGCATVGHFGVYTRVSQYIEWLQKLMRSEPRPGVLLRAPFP
Nature of the test: Binding affinity towards factor VIIa/TF was determined.

Consider 16 compounds from ChEMBL document CHEMBL1133926, “Optimization of a screening lead for factor VIIa/TF” (Bioorg Med Chem Lett, 2001).

pKi: −log10 of the molar value. The source made the active and inactive calls. No cut-off for these calls is given here.

T4 sequence (P07477 whole entry): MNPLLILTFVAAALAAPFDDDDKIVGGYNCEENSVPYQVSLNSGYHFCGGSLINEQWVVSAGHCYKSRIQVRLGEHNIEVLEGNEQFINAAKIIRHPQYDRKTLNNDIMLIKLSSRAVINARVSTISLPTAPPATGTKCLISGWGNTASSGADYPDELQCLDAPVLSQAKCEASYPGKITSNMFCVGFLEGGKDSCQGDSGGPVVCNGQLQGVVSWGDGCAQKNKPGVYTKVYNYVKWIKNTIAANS
T2 sequence (P00742 41-179 limits assumed): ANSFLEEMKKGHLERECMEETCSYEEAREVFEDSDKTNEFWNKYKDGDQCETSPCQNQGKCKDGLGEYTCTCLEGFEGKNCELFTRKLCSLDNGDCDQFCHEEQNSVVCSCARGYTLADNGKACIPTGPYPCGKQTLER
T2 sequence (P00742 235-488 limits assumed): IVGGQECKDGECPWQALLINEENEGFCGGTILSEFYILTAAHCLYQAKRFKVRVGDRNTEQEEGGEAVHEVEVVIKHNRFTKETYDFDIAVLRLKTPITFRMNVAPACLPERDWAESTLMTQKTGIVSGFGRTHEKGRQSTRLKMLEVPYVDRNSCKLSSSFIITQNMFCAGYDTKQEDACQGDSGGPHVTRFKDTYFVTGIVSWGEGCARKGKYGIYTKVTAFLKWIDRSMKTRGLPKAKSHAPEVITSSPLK
T1 sequence (P00747 97-580 limits assumed): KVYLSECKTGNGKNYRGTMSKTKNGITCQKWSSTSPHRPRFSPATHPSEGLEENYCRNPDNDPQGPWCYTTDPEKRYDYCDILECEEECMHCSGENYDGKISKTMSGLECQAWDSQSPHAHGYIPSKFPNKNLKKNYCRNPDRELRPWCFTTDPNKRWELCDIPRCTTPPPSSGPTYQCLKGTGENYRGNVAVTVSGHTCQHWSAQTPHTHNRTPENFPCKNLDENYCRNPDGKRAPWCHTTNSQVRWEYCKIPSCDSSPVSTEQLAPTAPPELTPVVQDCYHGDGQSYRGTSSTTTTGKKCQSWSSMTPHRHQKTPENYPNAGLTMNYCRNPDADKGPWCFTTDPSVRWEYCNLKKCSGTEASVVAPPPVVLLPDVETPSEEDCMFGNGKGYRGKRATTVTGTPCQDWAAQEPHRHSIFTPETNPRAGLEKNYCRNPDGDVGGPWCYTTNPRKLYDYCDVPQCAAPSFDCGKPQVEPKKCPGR
T1 sequence (P00747 581-810 limits assumed): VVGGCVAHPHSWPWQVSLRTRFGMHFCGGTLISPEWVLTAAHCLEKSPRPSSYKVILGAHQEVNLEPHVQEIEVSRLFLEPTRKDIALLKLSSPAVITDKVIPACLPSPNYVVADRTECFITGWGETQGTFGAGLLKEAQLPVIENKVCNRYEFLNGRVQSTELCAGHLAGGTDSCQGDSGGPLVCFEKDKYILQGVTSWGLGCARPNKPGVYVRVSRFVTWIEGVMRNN
Coagulation factor VII/tissue factor, sequence (P13726 33-295 partner limits assumed, one chain of several): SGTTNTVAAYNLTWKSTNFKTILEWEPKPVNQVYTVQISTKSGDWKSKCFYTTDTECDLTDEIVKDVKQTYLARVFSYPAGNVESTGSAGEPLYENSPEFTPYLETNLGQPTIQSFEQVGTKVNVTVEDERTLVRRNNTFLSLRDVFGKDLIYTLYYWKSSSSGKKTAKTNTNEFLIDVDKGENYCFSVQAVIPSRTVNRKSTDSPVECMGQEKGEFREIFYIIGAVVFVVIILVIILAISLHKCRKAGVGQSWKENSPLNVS

As a reminder, the pKi is the negative decadic logarithm of the Ki, by convention in mol/L. For `N=C(N)c1ccc2[nH]c(-c3cc(CC(=O)O)cc(-c4cccc(Cl)c4)c3O)cc2c1`, the Selectivity was determined as 17 at Plasminogen [1]; 5 on Coagulation factor X [2]; 112 at Prothrombin [4]; 3 on Serine protease 1 [5]; 4 in test [6]. Also, in [3], the pKi was 7.48.

Turning to `N=C(N)c1ccc2[nH]c(-c3cc(CC(=O)O)cc(-c4cccc([N+](=O)[O-])c4)c3O)cc2c1`, the Selectivity at Plasminogen [1] turned out to be 90; at Coagulation factor X [2] it was 20; at Prothrombin [4], 960; at Serine protease 1 [5] it was 160; in test [6], 64. Besides, in [7], the “2x PT” value amounted to 1.7 µM. This compound had a pKi in test [3] of 8.52.

Regarding `N=C(N)c1ccc2[nH]c(-c3cc(CC(=O)O)cc(-c4cccc(OP(=O)(O)O)c4)c3O)cc2c1`, the Selectivity at Plasminogen [1] was determined as 4; at Coagulation factor X [2] it was 1; at Prothrombin [4], 87; in [6], 4. Moreover, in test [3], the pKi is 6.02. In addition, the Selectivity entry at Serine protease 1 [5] was “inactive”.

For the compound `N=C(N)c1ccc2[nH]c(-c3cc(CCOP(=O)(O)O)cc(-c4cccc([N+](=O)[O-])c4)c3O)cc2c1`, the Selectivity on Plasminogen [1] stood at 33; on Coagulation factor X [2], 5; on Prothrombin [4] it was 870; on Serine protease 1 [5], 63; in test [6], 21. Also, in test [3], the pKi was 8.52. Also, in the test listed under Homo sapiens [8], the “2x PT” value is “inactive”.

In the case of `N=C(N)c1ccc2[nH]c(-c3cc(C(=O)O)cc(-c4cccc([N+](=O)[O-])c4)c3O)cc2c1`, the Selectivity worked out at 75 at Plasminogen [1]; 42 on Coagulation factor X [2]; 420 on Prothrombin [4]; 70 at Serine protease 1 [5]; 44 in test [6]. Also, the “2x PT” value in test [7] stood at 4.1 µM. The compound also showed a negative-log Ki (pKi) in test [3] of 8.30.

In the case of `N=C(N)c1ccc2[nH]c(-c3cc(CC(=O)O)cc(-c4cccc(N)c4)c3O)cc2c1`, the Selectivity at Plasminogen [1] amounted to 27; on Coagulation factor X [2], 26; on Prothrombin [4] it was 550; on Serine protease 1 [5] it was 83; in test [6], 6. Further, in [3], the pKi was 7.92.

On to `N=C(N)c1ccc2nc(-c3cc(Cl)cc(-c4cccc(N)c4)c3O)[nH]c2c1`, for which the pKi is 5.33 at Serine protease 1 [9]; 9.34 in [10]; 7.11 in test [3]; 8.38 at Prothrombin [11]; 9.30 at Coagulation factor X [12]; 5.49 at Plasminogen [13].

In the case of `N=C(N)c1cccc(-c2cc(CC(=O)O)cc(-c3cc4cc(C(=N)N)ccc4[nH]3)c2O)c1`, the Selectivity at Plasminogen [1] turned out to be 3; on Coagulation factor X [2] it was 4; at Prothrombin [4] it was 140; on Serine protease 1 [5], 2; in [6], 0.6. The compound also showed a pKi in test [3] of 6.37.

As for `N=C(N)c1ccc2[nH]c(-c3cc(CC(=O)O)cc(-c4cccc(C(=O)O)c4)c3O)cc2c1`, the Selectivity on Plasminogen [1] is 5; on Coagulation factor X [2] it was 0.5; at Prothrombin [4], 375; at Serine protease 1 [5], 1; in test [6], 6. The pKi in test [3] was 6.49.

Turning to `N=C(N)c1ccc2[nH]c(-c3cc(CC(=O)O)cc(-c4cccc(-c5nnn[nH]5)c4)c3O)cc2c1`, the negative logarithm of the Ki (pKi) in [3] was 6.32.

As to `N=C(N)c1ccc2[nH]c(-c3cc(CC(=O)O)cc(-c4ccccc4)c3O)cc2c1`, the Selectivity was 6 at Plasminogen [1]; 4 at Coagulation factor X [2]; 49 at Prothrombin [4]; 1 at Serine protease 1 [5]; 1 in test [6]. In test [3], this compound showed a pKi of 7.39.

With `N=C(N)c1ccc2[nH]c(-c3cc(CC(=O)O)cc(-c4cccc(-c5nn[nH]n5)c4)c3O)cc2c1`, the Selectivity was determined as 2 at Plasminogen [1]; 0.5 on Coagulation factor X [2]; 100 on Prothrombin [4]; 3 at Serine protease 1 [5]; 2 in test [6].

As for `N=C(N)c1ccc2[nH]c(-c3cc(CC(N)C(=O)O)cc(-c4cccc([N+](=O)[O-])c4)c3O)cc2c1` (stereo not given), the Selectivity at Plasminogen [1] was found to be 3; on Coagulation factor X [14], 0.5; at Prothrombin [15] it was 40; at Serine protease 1 [5], 5; in [6] it was 1. The “2x PT” value in the test filed under Homo sapiens [16] is 0.73 µM. The same compound had a negative-log Ki (pKi) on Coagulation factor VII of 7.30.

In the case of `N=C(N)c1ccc2[nH]c(-c3cc(-c4nn[nH]n4)cc(-c4cccc([N+](=O)[O-])c4)c3O)cc2c1`, the Selectivity turned out to be 20 at Plasminogen [1]; 0.5 at Coagulation factor X [14]; 140 at Prothrombin [15]; 40 at Serine protease 1 [5]; 15 in test [6]. Moreover, in the test listed under Homo sapiens [16], the “2x PT” value stood at 16 µM.

On to `N=C(N)c1ccc2[nH]c(-c3cc(-c4nnn[nH]4)cc(-c4cccc([N+](=O)[O-])c4)c3O)cc2c1`, for which the negative logarithm of the Ki (pKi) at Coagulation factor VII was 7.30.

Take `N=C(N)c1ccc2[nH]c(-c3cc(CCC(=O)O)cc(-c4cccc([N+](=O)[O-])c4)c3O)cc2c1`: the Selectivity on Plasminogen [1] worked out at 6; at Coagulation factor X [2] it was 2; on Prothrombin [4], 59; at Serine protease 1 [5], 37; in test [6] it was 6. For the same compound, in [7], the “2x PT” value came to 2.2 µM. In addition, the pKi in [3] is 7.57.
